Assay results published in the CheMixHub ionic liquid set.
Values joined by “and” are separate entries in the source; they are usually repeats but may differ in a detail not shown here. Identical values can stand only once.

Assay: xn = mol fraction of the nth substance listed

CCCCCC[n+]1ccn(C)c1C.O=S(=O)([N-]S(=O)(=O)C(F)(F)F)C(F)(F)F + COCCOCCOCCOCCOC
viscosity [mPa·s], 100 kPa
Settings | 293.15 K | 298.15 K | 308.15 K
x2 = 0 | – | 129 | –
x2 = 0.102 | 135 | 103 | 64
x2 = 0.306 | 66 | 51 | –

CCO + COP(=O)([O-])OC.C[N+]1(CCO)CCCC1
Settings | viscosity [mPa·s]
298.15 K, 100 kPa, x2 = 0 | 1.08

CCO + COP(=O)([O-])OC.Cn1cc[n+](C)c1
100 kPa, x2 = 0
Settings | viscosity [mPa·s]
298.15 K | 1.08
308.15 K | 0.89
328.15 K | 0.646

CCO + CS(=O)(=O)[O-].C[N+](C)(CCO)CCO
101 kPa, x2 = 0
Settings | viscosity [mPa·s]
298.15 K | 1.102
303.15 K | 1.002
308.15 K | 0.915
313.15 K | 0.837
318.15 K | 0.768
323.15 K | 0.706

CC(=O)[O-].CC[NH2+]CC + CS(C)=O
101 kPa
Settings | electrical conductivity [S/m] | viscosity [mPa·s]
298.15 K, x1 = 0.0079 | 0.066 | –
298.15 K, x1 = 0.0285 | 0.157 | –
298.15 K, x1 = 0.0475 | 0.217 | –
298.15 K, x1 = 0.0697 | 0.282 | –
298.15 K, x1 = 0.0998 | 0.348 | –
298.15 K, x1 = 0.1 | – | 2.99
298.15 K, x1 = 0.199 | – | 3.72
298.15 K, x1 = 0.1997 | 0.44 | –
298.15 K, x1 = 0.299 | – | 5.59
298.15 K, x1 = 0.3011 | 0.492 | –
298.15 K, x1 = 0.3994 | 0.531 | –
298.15 K, x1 = 0.4 | – | 8.01
298.15 K, x1 = 0.5 | – | 11.94
298.15 K, x1 = 0.5008 | 0.459 | –
298.15 K, x1 = 0.601 | – | 15.88
298.15 K, x1 = 0.6022 | 0.433 | –
298.15 K, x1 = 0.682 | – | 21.1
298.15 K, x1 = 0.7005 | 0.394 | –
298.15 K, x1 = 0.798 | – | 32.6
298.15 K, x1 = 0.8019 | 0.367 | –
298.15 K, x1 = 0.899 | – | 44.2
298.15 K, x1 = 0.9017 | 0.335 | –
298.15 K, x2 = 0.005 | – | 58.3
298.15 K, x2 = 0.2023 | – | 13.67
298.15 K, x2 = 0.2814 | – | 12.66
298.15 K, x2 = 0.5897 | – | 8.7
298.15 K, x2 = 0.66 | – | 7.71
298.15 K, x2 = 0.7851 | – | 5.81
298.15 K, x2 = 0.971 | – | 2.53
303.15 K, x2 = 0.0253 | – | 13.36
303.15 K, x2 = 0.7253 | – | 5.92
303.15 K, x2 = 0.8406 | – | 4.41
303.15 K, x2 = 0.9248 | – | 3.13
308.15 K, x2 = 0.1535 | – | 10.52
308.15 K, x2 = 0.2814 | – | 9.46

CC[n+]1ccn(C)c1.CO[PH](=O)[O-] + CS(C)=O
298.1 K, 100 kPa
Settings | electrical conductivity
x1 = 0.006 | 0.01 S/m
x1 = 0.01 | 0.13 S/m
x1 = 0.017 | 0.37 S/m and 0.45 S/m
x1 = 0.025 | 0.51 S/m and 0.68 S/m
x1 = 0.044 | 0.79 S/m
x1 = 0.059 | 0.93 S/m
x1 = 0.078 | 1.05 S/m
x1 = 0.123 | 1.15 S/m
x1 = 0.188 | 1.19 S/m
x1 = 0.267 | 1.13 S/m
x1 = 0.335 | 1.03 S/m
x1 = 0.453 | 0.88 S/m
x1 = 0.585 | 0.75 S/m
x1 = 0.763 | 0.59 S/m
x1 = 1 | 0.44 S/m
